Source: article PMC9697826 (Pharmaceuticals, 2022)

Target: T1, FABP4 (Homo sapiens, UniProt P15090)
T1 construct: purchased Cayman Chemical 10010231
Assay: FABP4 Inhibitor/Ligand Screening Assay Kit: displacement of a fluorescent detection reagent
Format: binding
Conditions: displacement of detection reagent from FABP4; compounds diluted in PBS pH 7.4; fluorescence em 470 nm, ex 370 nm
Protocol: FABP4 inhibitory activity was assessed by measuring the decrease in fluorescent signal of a detection reagent (DR) when displaced by a strong FABP4 ligand. […] Therefore, any effective ligand of the protein, which binds to the same binding pocket and can displace the DR, determines a reduction in the fluorescence read-out. The new molecular series was screened in a two-step procedure. Firstly, a single concentration of 5 µM was used to gain an estimation of the overall inhibitory effect of all the molecules.
To analyze the inhibitory activity of FABP4 ligands, a displacement assay was utilized as described by the Cayman’s instruction, FABP4 Inhibitor/Ligand Screening Assay Kit, Item 10,010,231 (see Supplementary Materials for additional details). The samples of compounds for activity determination were prepared as a stock solution (1 mM) in DMSO. On the day of activity assay, the compounds were all diluted in phosphate buffer solution (PBS, pH 7.4) to different concentrations (100, 50, 10, 5, 2, 1, and 0 µM). Appropriate concentrations of DMSO in PBS were used as control. The detection reagent (FABP Assay Detection Reagent, Item 10010376) was used as provided by the Cayman’s kit. The diluted Detection Reagent probe was mixed with FABP4 protein present in the kit and incubated for 10 min at room temperature. Compounds were then added and equilibrated for another 10 min. Lastly, the fluorescence signal was recorded at 470 nm (i.e., emission, with the excitation fixed at 370 nm) with a CytoFluor® Series 4000 Fluorescence Multi-Well Plate Reader.

T1 sequence (P15090 whole entry): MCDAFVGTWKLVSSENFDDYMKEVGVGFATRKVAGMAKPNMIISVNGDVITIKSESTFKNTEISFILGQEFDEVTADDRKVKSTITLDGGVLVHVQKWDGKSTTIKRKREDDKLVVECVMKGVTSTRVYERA

| SMILES | IC50 |
| --- | --- |
| CCCNC(=O)c1c(-c2ccccc2)n[nH]c(=O)c1N [Compound 4b, 5-Amino-6-oxo-3-phenyl-1,6-dihydropyridazine-4-carboxylic acid propylamide] | 8.27 ± 0.2 µM |
| N#Cc1c(-c2ccccc2)nn(C2CCCCC2)c(=O)c1N [Compound 22, 5-Amino-1-cyclohexyl-6-oxo-3-phenyl-1,6-dihydropyridazine-4-carbonitrile] | 15.2 ± 0.76 µM |
| Cn1nc(-c2ccccc2)cc(NC(N)=O)c1=O [Compound 25a, (2-Methyl-3-oxo-6-phenyl-2,3-dihydro-pyridazin-4-yl)urea] | 2.97 ± 0.26 µM |
| CCn1nc(-c2ccccc2)cc(NC(N)=O)c1=O [Compound 25c, (2-Ethyl-3-oxo-6-phenyl-2,3-dihydro-pyridazin-4-yl)urea] | > 50 µM |
| CCCn1nc(-c2ccccc2)cc(NC(N)=O)c1=O [Compound 25e, (3-Oxo-6-phenyl-2-propyl-2,3-dihydro-pyridazin-4-yl)urea] | > 50 µM |
| Cn1nc(-c2ccccc2)cc(Nc2ccccc2C#N)c1=O [Compound 30b, 2-(2-Methyl-3-oxo-6-phenyl-2,3-dihydro-pyridazin-4-ylamino)benzonitrile] | 23.2 ± 0.52 µM |
| Cc1cc(N)c(=O)n(-c2ccccc2)n1 [Compound 54] | > 50 µM |

Same assay, conditions: summary statement in conclusions

| SMILES | FABP4 inhibitory activity, IC50 in words |
| --- | --- |
| CCCNC(=O)c1c(-c2ccccc2)n[nH]c(=O)c1N [Compound 4b, 5-Amino-6-oxo-3-phenyl-1,6-dihydropyridazine-4-carboxylic acid propylamide] | low micromolar range |
| N#Cc1c(-c2ccccc2)nn(C2CCCCC2)c(=O)c1N [Compound 22, 5-Amino-1-cyclohexyl-6-oxo-3-phenyl-1,6-dihydropyridazine-4-carbonitrile] | low micromolar range |
| Cn1nc(-c2ccccc2)cc(NC(N)=O)c1=O [Compound 25a, (2-Methyl-3-oxo-6-phenyl-2,3-dihydro-pyridazin-4-yl)urea] | low micromolar range |
| Cn1nc(-c2ccccc2)cc(Nc2ccccc2C#N)c1=O [Compound 30b, 2-(2-Methyl-3-oxo-6-phenyl-2,3-dihydro-pyridazin-4-ylamino)benzonitrile] | low micromolar range |

Test system: not given
Assay: not given
Conditions: not given

| SMILES | melting point |
| --- | --- |
| Nc1c(C(=O)Nc2ccccc2)c(-c2ccccc2)n[nH]c1=O [Compound 4a, 5-Amino-6-oxo-3-phenyl-1,6-dihydropyridazine-4-carboxylic acid phenylamide] | 228 to 229 °C |
| CCCNC(=O)c1c(-c2ccccc2)n[nH]c(=O)c1N [Compound 4b, 5-Amino-6-oxo-3-phenyl-1,6-dihydropyridazine-4-carboxylic acid propylamide] | 228 to 230 °C |
| CCn1nc(-c2ccccc2)c(C(=O)Nc2ccccc2)c(N)c1=O [Compound 5a, 5-Amino-1-ethyl-6-oxo-3-phenyl-1,6-dihydropyridazine-4-carboxylic acid phenylamide] | 172 to 173 °C |
| CCCNC(=O)c1c(-c2ccccc2)nn(CC)c(=O)c1N [Compound 5b, 5-Amino-1-ethyl-6-oxo-3-phenyl-1,6-dihydro-pyridazine-4-carboxylic acid propylamide] | 141 to 143 °C |
| NC(=O)c1c(-c2ccccc2)n[nH]c(=O)c1N [Compound 6, 5-Amino-6-oxo-3-phenyl-1,6-dihydropyridazine-4-carboxylic acid amide] | > 300 °C |
| N#Cc1c(-c2ccccc2)n[nH]c(=O)c1N [Compound 7, 5-Amino-6-oxo-3-phenyl-1,6-dihydropyridazine-4-carbonitrile] | 287 to 289 °C |
| Cc1nn(-c2ccccc2)c(=O)c(N)c1C(N)=O [Compound 16, 5-Amino-3-methyl-6-oxo-1-phenyl-1,6-dihydropyridazine-4-carboxylic acid amide] | 247 to 249 °C |
| Cc1nn(-c2ccccc2)c(=O)c(N)c1C#N [Compound 17, 5-Amino-3-methyl-6-oxo-1-phenyl-1,6-dihydropyridazine-4-carbonitrile] | 201 to 203 °C |
| CC(=O)c1cnn(-c2ccccc2)c(=O)c1N [Compound 18, 5-Acetyl-4-amino-2-phenylpyridazin-3(2H)-one] | 181 to 183 °C |
| NC(=O)c1c(-c2ccccc2)nn(C2CCCCC2)c(=O)c1N [Compound 21, 5-Amino-1-cyclohexyl-6-oxo-3-phenyl-1,6-dihydropyridazine-4-carboxylic acid amide] | 125 to 128 °C |
| N#Cc1c(-c2ccccc2)nn(C2CCCCC2)c(=O)c1N [Compound 22, 5-Amino-1-cyclohexyl-6-oxo-3-phenyl-1,6-dihydropyridazine-4-carbonitrile] | 170 to 172 °C |
| Nc1cc(-c2ccccc2)nn(C2CCCCC2)c1=O [Compound 24b, 4-Amino-2-cyclohexyl-6-phenylpyridazin-3(2H)-one] | 120 to 124 °C |
| CC(C)n1nc(-c2ccccc2)cc(N)c1=O [Compound 24d, 4-Amino-2-isopropyl-6-phenylpyridazin-3(2H)-one] | 122 to 124 °C |
| CCCn1nc(-c2ccccc2)cc(N)c1=O [Compound 24e, 4-Amino-6-phenyl-2-propylpyridazin-3(2H)-one] | 79 to 81 °C |
| CCCCn1nc(-c2ccccc2)cc(N)c1=O [Compound 24f, 4-Amino-2-butyl-6-phenylpyridazin-3(2H)-one] | 67 to 69 °C |
| Cn1nc(-c2ccccc2)cc(NC(N)=O)c1=O [Compound 25a, (2-Methyl-3-oxo-6-phenyl-2,3-dihydro-pyridazin-4-yl)urea] | > 300 °C |
| NC(=O)Nc1cc(-c2ccccc2)nn(C2CCCCC2)c1=O [Compound 25b, (2-Cyclohexyl-3-oxo-6-phenyl-2,3-dihydro-pyridazin-4-yl)urea] | 261 to 263 °C |
| CCn1nc(-c2ccccc2)cc(NC(N)=O)c1=O [Compound 25c, (2-Ethyl-3-oxo-6-phenyl-2,3-dihydro-pyridazin-4-yl)urea] | 270 to 271 °C |
| CC(C)n1nc(-c2ccccc2)cc(NC(N)=O)c1=O [Compound 25d, (2-Isopropyl-3-oxo-6-phenyl-2,3-dihydro-pyridazin-4-yl)urea] | 260 to 263 °C |
| CCCn1nc(-c2ccccc2)cc(NC(N)=O)c1=O [Compound 25e, (3-Oxo-6-phenyl-2-propyl-2,3-dihydro-pyridazin-4-yl)urea] | 273 to 275 °C |
| CCCCn1nc(-c2ccccc2)cc(NC(N)=O)c1=O [Compound 25f, (2-Butyl-3-oxo-6-phenyl-2,3-dihydro-pyridazin-4-yl)urea] | 265 to 267 °C |
| NC(=O)Nc1cc(-c2ccccc2)n[nH]c1=O [Compound 28, (3-Oxo-6-phenyl-2,3-dihydro-pyridazin-4-yl)urea] | > 300 °C |
| CC(=O)Nc1cc(-c2ccccc2)nn(C)c1=O [Compound 29a, N-(2-Methyl-3-oxo-6-phenyl-2,3-dihydro-pyridazin-4-yl)acetamide] | 211 to 212 °C |
| CCC(=O)Nc1cc(-c2ccccc2)nn(C)c1=O [Compound 29b, N-(2-Methyl-3-oxo-6-phenyl-2,3-dihydro-pyridazin-4-yl)propionamide] | 210 to 211 °C |

| SMILES | melting point |
| --- | --- |
| CC(C)C(=O)Nc1cc(-c2ccccc2)nn(C)c1=O [Compound 29c, N-(2-Methyl-3-oxo-6-phenyl-2,3-dihydro-pyridazin-4-yl)isobutyramide] | 146 to 148 °C |
| CCCC(=O)Nc1cc(-c2ccccc2)nn(C)c1=O [Compound 29d, N-(2-Methyl-3-oxo-6-phenyl-2,3-dihydro-pyridazin-4-yl)butyramide] | 187 to 189 °C |
| Cn1nc(-c2ccccc2)cc(Nc2cccc(C#N)c2)c1=O [Compound 30a, 3-(2-Methyl-3-oxo-6-phenyl-2,3-dihydro-pyridazin-4-ylamino)benzonitrile] | 234 to 235 °C |
| Cn1nc(-c2ccccc2)cc(Nc2cccc(C(N)=O)c2)c1=O [Compound 31a, 3-(2-Methyl-3-oxo-6-phenyl-2,3-dihydro-pyridazin-4-ylamino)benzamide] | 214 to 216 °C |
| Cn1nc(-c2ccccc2)cc(Nc2ccccc2C(N)=O)c1=O [Compound 31b, 2-(2-Methyl-3-oxo-6-phenyl-2,3-dihydro-pyridazin-4-ylamino)benzamide] | 140 to 142 °C |
| Cn1nc(-c2ccccc2)cc(N)c1=S [Compound 32, 4-Amino-2-methyl-6-phenylpyridazine-3(2H)-thione] | 134 to 135 °C |
| Nc1cc(-c2ccsc2)n[nH]c1=O [Compound 37a, 4-Amino-6-thiophen-3-yl-pyridazin-3(2H)-one] | > 300 °C |
| Nc1cc(C2CCCCC2)n[nH]c1=O [Compound 37b, 4-Amino-6-cyclohexylpyridazin-3(2H)-one] | 284 to 287 °C |
| CC(C)c1cc(N)c(=O)[nH]n1 [Compound 37c, 4-Amino-6-isopropylpyridazin-3(2H)-one] | 246 to 248 °C |
| Nc1cc(Cc2ccccc2)n[nH]c1=O [Compound 37d, 4-Amino-6-benzylpyridazin-3(2H)-one] | 247 to 250 °C |
| Cn1nc(-c2ccsc2)cc(N)c1=O [Compound 38a, 4-Amino-2-methyl-6-thiophen-3-yl-pyridazin-3(2H)-one] | 178 to 179 °C |
| Cn1nc(Cc2ccccc2)cc(N)c1=O [Compound 38d, 4-Amino-6-benzyl-2-methylpyridazin-3(2H)-one] | 104 to 108 °C |
| Cn1nc(C2CCCCC2)cc(NC(N)=O)c1=O [Compound 39a, (6-Cyclohexyl-2-methyl-3-oxo-2,3-dihydropyridazin-4-yl)urea] | 251 to 254 °C |
| CC(C)c1cc(NC(N)=O)c(=O)n(C)n1 [Compound 39b, (6-Isopropyl-2-methyl-3-oxo-2,3-dihydropyridazin-4-yl)urea] | 248 to 251 °C |
| NC(=O)Nc1cc(-c2ccccc2O)n[nH]c1=O [Compound 40, [6-(2-Hydroxy-phenyl)-3-oxo-2,3-dihydro-pyridazin-4-yl]-urea] | > 300 °C |
| Cn1nc(-c2ccccc2O)cc(N)c1=O [Compound 42a, 4-Amino-6-(2-hydroxyphenyl)-2-methylpyridazin-3(2H)-one] | 212 to 213 °C |
| Cn1nc(-c2ccc(N)cc2)cc(N)c1=O [Compound 42b, 4-Amino-6-(4-aminophenyl)-2-methylpyridazin-3(2H)-one] | 208 to 209 °C |
| Cn1nc(-c2ccccc2O)cc(NC(N)=O)c1=O [Compound 43, [6-(2-Hydroxyphenyl)-2-methyl-3-oxo-2,3-dihydropyridazin-4-yl]-urea] | 278 to 280 °C |
| CC(=O)Nc1ccc(-c2cc(N)c(=O)n(C)n2)cc1 [Compound 44, N-[4-(5-Amino-1-methyl-6-oxo-1,6-dihydropyridazin-3-yl)-phenyl]-acetamide] | 270 to 272 °C |
| Cn1nc(-c2ccccn2)cc(N)c1=O [Compound 48, 4-Amino-2-methyl-6-pyridin-2-yl-pyridazin-3(2H)-one] | 294 to 295 °C |
| Cn1nc(-c2ccccn2)cc(NC(N)=O)c1=O [Compound 49, (2-Methyl-3-oxo-6-pyridin-2-yl-2,3-dihydropyridazin-4-yl)-urea] | > 300 °C |
| Cn1nc(-c2ccccc2)cc(C(N)=O)c1=O [Compound 51, 2-Methyl-3-oxo-6-phenyl-2,3-dihydropyridazine-4-carboxamide] | 215 to 217 °C |
| Cc1nn(-c2ccccc2)c(=O)c(N)c1-c1ccn[nH]1 [Compound 57, 4-Amino-6-methyl-2-phenyl-5-(1H-pyrazol-5-yl)pyridazin-3(2H)-one] | 119 to 121 °C |
